Measurements taken from PMC12072186, “A Novel Small Molecule Enhances Stable Dopamine Delivery to the Brain in Models of Parkinson’s Disease” (International Journal of Molecular Sciences, 2025).
“Also recorded” adds a separate entry of the source. Like-named read-outs stand apart in the source and are kept apart here.

Legend:
[1] = test system: TgA53T mice; test: Tolerated dose, dose escalation study; assay type: in vivo
Experimental: Pegasus synthesis and the D5 control derivative of tetracycline were previously described. Pegasus is a 652.2 Da small molecule that consists of one DA conjugated to tetracycline via a molecular linker (Figure 1A). […] We determined a tolerated dose of Pegasus in young (6–7 months old) and old (11–12 months old) TgA53T mice (IP, once daily) treated with an ascending dose of Pegasus of 10 mg/kg, 50 mg/kg, and 75 mg/kg for 4 consecutive days (Figure 1B). Pegasus was tolerated up to 75 mg/kg without visible adverse effects. […] We then reduced the dose to 75 mg/kg for another week.
(§1) Tissue toxicity was assessed in young (6–7-month-old) and old (12–13-month-old) A53T mice. The mice received daily i.p. escalating doses of Pegasus or control D5 (tetracycline derivative with no DA) vs. DMSO of 10, 25, 50, and 100 mg/kg for 4 days with each dose up to 16 days, and tissues were analyzed via caspase-3 activity. The caspase-3 activity assay (EnzChek® Invitrogen, Waltham, MA, USA) was conducted according to manufacturer’s protocols as we previously described.

[2] = Pharmacokinetics after single i.p. injection, serum and brain (UHPLC-MS/MS); assay type: in vivo, mouse; settings: for Kp: intraperitoneal; for half-life / AUC(0-inf): ip
[3] = test system: caspase-3 activity; test: Tissue toxicity via caspase-3 activity assay; assay type: in vivo; settings: liver, brain, kidney, lung, spleen, heart, serum, small intestine; young TgA53T mice; vs naïve, DMSO and D5
Experimental: We further verified cell death via caspase-3 activity assays of the liver, brain, kidney, lung, spleen, heart, serum, and small intestine in young TgA53T mice (6–7 months old).
as §1

[4] = test system: TgA53T mice; test: Elevated plus maze test in TgA53T mice; assay type: in vivo, mouse; settings: 50 mg/kg i.p., vs DMSO
[5] = test system: DA and its metabolite HVA; test: DA and HVA ELISA on serum and brain extracts of TgA53T mice; assay type: in vivo, mouse; settings: 50 mg/kg, 12–13-month-old TgA53T mice, vs DMSO
[6] = test system: MPTP-treated C57BL/6 mice; test: Rotarod test in MPTP-treated mice; assay type: in vivo, mouse; settings: MPTP 25 mg/kg i.p. day 1–5; treatment day 1–13; vs MPTP vehicle control
Experimental: (§2) MPTP was injected to male C57BL/6 mice for 5 consecutive days (Figure 4A) to destroy DA neurons, and then the mice were treated with Pegasus alone or Pegasus + Benserazide compared to L-dopa alone or L-Dopa + Benserazide.
(§3) From day 1 to day 5, MPTP was administered to all the groups except Naive at a dose of 25 mg/kg, i.p., QD. Treatment with Pegasus alone (50 mg/kg, i.p., BID), a combination of Pegasus 50 mg/kg, BID + Benserazide 10 mg/kg, QD, or a combination of L-Dopa 10 mg/kg, QD + Benserazide 10 mg/kg, QD or standalone L-Dopa 10 mg/kg, QD, started on day 1 and continued until day 13. On day 13, after the first dose of Pegasus, 4 animals/time point from each group were sacrificed at 0.5, 1, 3, 6, and 12 h, and the blood and brains were collected.
The mice were placed on an accelerating Rotarod (Columbus Instruments, Columbus, OH, USA) equipped with individual timers for each mouse. […] The mice were trained for 3 consecutive days before the final measurement.

[7] = test system: MPTP-treated C57BL/6 mice; test: Grip strength test in MPTP-treated mice; assay type: in vivo, mouse; settings: MPTP 25 mg/kg i.p. day 1–5; treatment day 1–13; vs MPTP vehicle control
Experimental: as §2, §3
The maximal muscle/grip strength of forelimbs was measured using a strength meter.

[8] = test system: microglia (IBA1); test: IBA1 immunohistochemistry of microglia; assay type: in vivo, mouse; settings: young and old TgA53T mice, vs DMSO
Excerpt: Neuroinflammation is one of the most important pathogeneses in PD in addition to alpha-synuclein aggregation. To examine the effects of Pegasus on glial cell activation, we performed immunohistochemistry of astrocyte and microglia from the brains of treated vs. untreated young (6–7-month-old) and old (12–13-month-old) TgA53T mice.

[9] = test system: TgA53T mice; test: Rotarod test in TgA53T mice; assay type: in vivo, mouse
[10] = test system: human alpha-synuclein; test: Human alpha-synuclein ELISA of brain lysates; assay type: in vivo, mouse; settings: brain lysates of old (11–12-month-old) TgA53T mice, vs DMSO
Experimental: The concentration of CNS alpha-synuclein via ELISA was reduced in the brain lysates of old (11–12-month-old) TgA53T mice treated with Pegasus compared to DMSO-treated controls (Figure 5I).
The levels of DA and its metabolite HVA were measured using a commercially available ELISA (Cat No. MBS269234 and Cat# MBS1601074, MyBiosource, San Diego, CA, USA) on serum and brain tissue soluble extracts. Human alpha-synuclein was measured via a human-specific ELISA (Cat# 448607, BioLegend, San Diego, CA, USA) according to the manufacturer’s protocol.

[11] = In vivo metabolism, metabolite profiling in rat brain and plasma (LC-MS/MS)
Experimental: In vivo metabolism: We performed a metabolism study (Figure 2) in male Sprague Dawley rats (6–8 weeks old) after a single i.p. injection of 50 mg/kg Pegasus. Plasma and brain samples were serially collected and assessed for the presence of possible phase-I and phase-II metabolites. […] The relative abundance of Pegasus and its metabolites in the brain and plasma was determined at the ionization parameters of the parent.
Metabolite profiling was performed in rat brain and plasma samples to detect phase-I and phase-II metabolites in male Sprague Dawley rats (6–8 weeks old, n = 6) injected (i.p.) with 50 mg/kg Pegasus. The formulation vehicle of Pegasus was 5% DMSO + 35% polyethylene glycol (PEG) 400 + 60% normal saline, and this formulation was used to measure the plasma and brain concentrations of Pegasus and all other metabolites. All samples obtained after Pegasus dosing in rats by the i.p. route of administration were used for metabolite profiling and compared to normal saline. Blood (n = 16 samples) was collected via retro-orbital plexus puncture 0.25, 1, 4, 6, 8, and 24 h pre-dose, and brain sampling was 1, 4, and 24 h post-dose (n = 6 per group). The brain samples were cleaned and perfused, then washed with PBS. The brains (approximately 1.5 g) were transferred to a 50 mL centrifuge tube and 36 mL of ice-cold PBS was added. The mixture was homogenized for about 1–2 min to obtain a uniform suspension. The precipitate was allowed to settle for 30 min at 4 °C, and 15 mL of the middle layer was collected. The plasma and brain samples were processed by the protein precipitation method. In total, 175 μL of acetonitrile was added to 25 μL of plasma samples. The samples were mixed, followed by centrifugation at 4000 rpm for 20 min. The supernatant from the samples was subjected to LC-MS/MS analysis.
The samples were analyzed by liquid chromatography tandem mass spectrometry (HPLC: LC series, Shimadzu, Chiyoda-ku, Tokyo, Japan; mass spectrometer: API4000 Triple Quad mass spectrometer, Applied Biosystems, Carlsbad, CA, USA). The samples (n = 6) were processed using protein precipitation and 1 mM stock solution, prepared in DMSO, spiked into acetonitrile to a final concentration of 4 µM, and processed using liquid chromatography tandem mass spectrometry, employing a linear gradient method using MH+/MH−(Q1) and product ion (MS/MS) scans. The evaluation of the Pegasus metabolites included demethylation, de-hydroxylation, amide cleavage, oxidation, de-hydrogenation, glucuronidation, sulfation, glutathione conjugation, and several other possibilities. The relative abundance of Pegasus and its metabolites in the brain and plasma was determined at the ionization parameters of the parent.

[12] = Plasma binding by equilibrium dialysis; assay type: in vitro ADME; settings: mouse, rat, dog, and human plasma
Excerpt: Many of the metabolites were formed after the amide cleavage of the parent, Pegasus, into the tetracycline or the DA scaffold and further biotransformation of those scaffolds. […] Both M8 and M11 are abundantly detected in the brain and the blood in rats and the relative abundance of brain–plasma is 318 and 131%, respectively. […] Furthermore, Pegasus is […] bound to mouse, rat, dog, and human plasma (Avg. 91–98%) using the equilibrium dialysis method.

[13] = 50 mg/kg Pegasus i.p., Sprague Dawley rats

C[C@H]1c2ccc(NC(=O)CCC(=O)NCCc3ccc(O)c(O)c3)c(O)c2C(=O)C2=C(O)[C@]3(O)C(=O)C(C(N)=O)=C(O)CC3[C@@H](O)C21 (stereo partly shown) [Pegasus]
Visible side effects at 50 mg/kg ([1]; 50 mg/kg, mice): no visible side effects
Adverse effects at 100 mg/kg ([1]; 100 mg/kg, male and female 12–13 months old mice): some scruffiness and weakness at Day16, and one mouse showed gut toxicity at autopsy
Tolerated dose ([1]; TgA53T, mouse, in vivo, ip, 4 days per dose level): up to 75 mg/kg
Adverse effects at autopsy after dose reduction ([1]; dose reduced to 75 mg/kg for another week): no adverse effects were detected
Kp ([2]; C57BL/6 (mouse), Sprague Dawley (rat), mouse and rat brain, read-out: Share of Pegasus detected in the brain): < 0.01
half-life ([2]; both sexes, C57BL/6, mouse, brain, 50 mg/kg, 50 mg/kg ip, read-out: Brain T1/2 (elimination) (converted)): 3.77 h
half-life ([2]; both sexes, C57BL/6, mouse, brain, 100 mg/kg, 100 mg/kg ip, read-out: Brain T1/2 (elimination) (converted)): 1.82 h
AUC(0-inf) ([2]; both sexes, C57BL/6, mouse, brain, 100 mg/kg, across 50 and 100 mg/kg i.p., read-out: AUC0-inf in the brain): 86.6 to 223 ng·h/mL
half-life ([2]; both sexes, C57BL/6, mouse, brain, 100 mg/kg, across 50 and 100 mg/kg i.p., read-out: Elimination half time T1/2 in the brain): 1.82 to 3.77 h
Kp ([2]; both sexes, C57BL/6, mouse, brain/serum, 50 mg/kg ip, read-out: Ratio of Brain/Serum (%)): 0.007
Kp ([2]; both sexes, C57BL/6, mouse, brain/serum, 100 mg/kg ip, read-out: Ratio of Brain/Serum (%)): 0.006
Kp ([2]; both sexes, C57BL/6, mouse, brain/serum, across 50 and 100 mg/kg i.p., read-out: Percentage ratio of brain/serum): 0.006 to 0.007
Tmax ([2]; both sexes, C57BL/6, mouse, brain, 50 mg/kg ip, read-out: Brain Tmax): 2 h
Tmax ([2]; both sexes, C57BL/6, mouse, brain, 100 mg/kg ip, read-out: Brain Tmax): 1.5 h
AUC(0-inf) ([2]; both sexes, C57BL/6, mouse, serum, 50 mg/kg, 50 mg/kg ip, read-out: Serum AUC (0-inf)): 17200 ng·h/mL
half-life ([2]; both sexes, C57BL/6, mouse, serum, 50 mg/kg, 50 mg/kg ip, read-out: Serum T1/2 (elimination) (converted)): 4.11 h
AUC(0-inf) ([2]; both sexes, C57BL/6, mouse, serum, 100 mg/kg, 100 mg/kg ip, read-out: Serum AUC (0-inf)): 49100 ng·h/mL
half-life ([2]; both sexes, C57BL/6, mouse, serum, 100 mg/kg, 100 mg/kg ip, read-out: Serum T1/2 (elimination) (converted)): 4.74 h
AUC(0-inf) ([2]; both sexes, C57BL/6, mouse, serum, 100 mg/kg, across 50 and 100 mg/kg i.p., read-out: AUC0-inf in the serum): 17200 to 49100 ng·h/mL
half-life ([2]; both sexes, C57BL/6, mouse, serum, 100 mg/kg, across 50 and 100 mg/kg i.p., read-out: Elimination half time T1/2 in the serum): 4.11 to 4.74 h
Cmax ([2]; both sexes, C57BL/6, mouse, serum, 50 mg/kg ip, read-out: Serum Cmax): 7.97 µM
Cmax ([2]; both sexes, C57BL/6, mouse, serum, 50 mg/kg ip, read-out: Serum Cmax (ng/ml)): 5190 ng/mL
Tmax ([2]; both sexes, C57BL/6, mouse, serum, 50 mg/kg ip, read-out: Serum Tmax): 2 h
Cmax ([2]; both sexes, C57BL/6, mouse, serum, 100 mg/kg ip, read-out: Serum Cmax): 32.7 µM
Cmax ([2]; both sexes, C57BL/6, mouse, serum, 100 mg/kg ip, read-out: Serum Cmax (ng/ml)): 21300 ng/mL
Tmax ([2]; both sexes, C57BL/6, mouse, serum, 100 mg/kg ip, read-out: Serum Tmax): 2.5 h
Caspase-3 activity in tissues [3]: no apparent toxicity in organs; also recorded: no significant changes in caspase-3 activity
Elevated plus maze total distance traveled [4]: significantly decreased
Elevated plus maze total number of entries to arms [4]: significantly decreased
Percentage of entries to open arms [4]: increased
Percentage of time spent in open arms [4]: increased
Concentration of DA in the brain [5]: significantly increases
Concentration of DA in the serum [5]: significantly increases
Concentration of HVA in the brain [5]: significantly increases
Concentration of HVA in the serum [5]: though not HVA in the serum
Latency to fall (Rotarod) [6]: significantly increased latency to fall
Forelimb grip strength [7]: significantly reversed back to normal levels
IBA1 staining in the hippocampus [8]: No differences in IBA1 staining
Duration of improved Rotarod motor performance ([9]; 50 mg/kg for 3 weeks, TgA53T mice): up to 6.5 h
Rotarod motor performance ([9]; 1–2 h post-injection, 50 mg/kg i.p. daily, 12–13 months old TgA53T mice, vs DMSO): significantly improves motor performance
Rotarod motor behavior ([9]; 2–3 h, 3–4 h and up to 5–6.5 h post-injection, 50 mg/kg i.p. daily, vs DMSO): continues to improve motor behavior
Concentration of CNS alpha-synuclein (ELISA) [10]: reduced
Observed in Rat Brain [11, 13]: not detected
Observed in Rat Plasma [11, 13]: very small
Kp ([11]; male, Sprague Dawley, intraperitoneal, 50 mg/kg, relative abundance brain vs plasma, rat): 0
Plasma binding (Avg.) [12]: 91–98%
